By IC90 is commonly meant the point of the concentration-response curve where the effect stands at 90%. A high value points to weaker potency. The term IC50 denotes the concentration that gives 50% inhibition.

Structures can show the parent of a compound that is named as a salt. Where two headings read alike, the source gives them in different places. Some results are limits rather than exact numbers.

In series [1] the test system is Huh7 cells expressing a subgenomic RNA replicon of Con1 (genotype 1b) sequence origin.
Series [2] has as its system Huh7 parental cells.
Series [3] can be described thus: in vitro. The settings on record: human.
For series [4], the system named is Huh7 cells expressing a subgenomic RNA replicon of Con1 (genotype 1b) sequence origin. The series can be described thus: microbe, parasite or virus in culture. The settings on record: Hepatitis C virus.
The mark [5] stands for this setting: Huh-7, read-out: IC50 (uM) [SG].
The mark [6] stands for this setting: Huh-7, read-out: Max Effect@CC30 (inhibition).
The mark [7] stands for this setting: GETYPE1B, Huh-7, 72 h, read-out: Max Effect @CC30 (inhibition).
Where [8] appears, read: Huh-7, 48 h, read-out: Max Effect.

For `CN[C@H]1CC[C@@H](c2ccc(Cl)c(Cl)c2)c2ccccc21.Cl` [(1R,4S) Sertraline Hydrochloride], the “Max Effect@CC30 (inhibition)” value in series [1] worked out at 90.8 ± 1.6%. This molecule displayed an IC90 in series [1] (Hydrochloride) of 12.1 ± 0.83 µM. Further, the CC50 in series [2] is 14.2 ± 0.16 µM.

Turning to `CN[C@H]1CC[C@H](c2ccc(Cl)c(Cl)c2)c2ccccc21.Cl` [(1S,4R) Sertraline Hydrochloride], the “Max Effect@CC30 (inhibition)” value in series [1] is listed as 50 ± 17.4%. For the same molecule, the CC50 in series [2] was determined as 7.51 ± 0.8 µM.

For the molecule `CN[C@H]1CC[C@@H](c2ccc(Cl)c(Cl)c2)c2ccc(CS(C)(=O)=O)cc21` [(1S,4S)-4-(3,4-dichlorophenyl)-N-methyl-7-(methylsulfonylmethyl)-1,2,3,4-tetrahydronaphthalen-1-amine], the IC50 is 2.33 µM in series [1] (read-out: IC50 (uM) [SG]); 1.68 µM in series [4] (Huh-7); 1.68 µM in series [4] (setting [5]); 1.68 µM in series [4] (Huh-7, read-out: SA IC50 (uM)). For the same molecule, the CC50 stood at 14.2 µM in series [2] (human), 13 µM in series [3] (CC50 (uM)) and 13 µM in series [3] (CC50 (uM) [SG]). The same molecule registered a concentration for an effect of 90% (IC90) in series [4] (Huh-7) of 7.89 µM. In addition, the Emax in series [4] (setting [6]) turned out to be 84.8%; in series [4] (Huh-7, read-out: Max effect @CC30 (%)), 84.8%.

On to `Cl.N[C@H]1CC[C@@H](c2ccc(Cl)c(Cl)c2)c2ccccc21` [(1S,4S)-Desmethyl Sertraline, Hydrochloride], for which, in series [1], the IC50 came out at 5.35 µM, the “Max Effect” value was determined as 98%, the “Synergy Score” value is reported as 2.14 and the “TI (CC50/IC50)” value was found to be 1.247. Also, the CC50 in series [2] is 6.68 µM.

In the case of `CN(C)[C@H]1CC[C@@H](c2ccc(Cl)c(Cl)c2)c2ccc(C(N)=O)cc21` [(5S,8S)-5-(3,4-dichlorophenyl)-8-(dimethylamino)-5,6,7,8-tetrahydronaphthalene-2-carboxamide], the IC90 was 8.73 µM in series [1] and 8.77 ± 0.05 µM in series [4] (Huh-7). The IC50 in series [1] (read-out: IC50 (uM) [SG]) stood at 3.18 µM; in series [4] (Huh-7), 2.96 µM; in series [4] (setting [5]), 2.62 ± 0.48 µM. Further, the values for the CC50 in series [2] (human), in series [3] (CC50 (uM)) and in series [3] (CC50 (uM) [SG]) were 23.7 µM, 20.7 µM and 21.7 ± 1.44 µM, respectively. Also, the Emax in series [4] (Huh-7, read-out: Max Effect @CC30 (inhibition)) was determined as 94.8%; in series [4] (setting [6]) it was 94.3 ± 0.7%.

Take `CSc1ccc(Oc2ccc(Br)cc2CN(C)C)cc1C` [Compound 9, (5-bromo-2-(3-methyl-4-(methylthio)phenoxy)phenyl)-N,N-dimethylmethanamine]: the CC50 was over 50 µM in series [2] (human) and 54.8 µM in series [3] (CC50 (uM) [SG]). For the same molecule, the IC50 in series [4] (setting [5]) amounted to 14.5 µM. For the same molecule, in series [4] (setting [6]), the Emax is 79%.

Consider `CN(C)[C@H]1CC[C@@H](c2ccc(Cl)c(Cl)c2)c2ccc(C(=O)NC3CC3)cc21` [N,N-Dimethyl Sertraline A-Ring Reverse Cyclopropane Carboxam] [(5S,8S)—N-cyclopropyl-5-(3,4-dichlorophenyl)-8-(dimethylamino)-5,6,7,8-tetrahydronaphthalene-2-carboxamide], for which the IC50 in series [1] (read-out: IC50 (uM) [SG]) was 8.63 µM. Further, the CC50 in series [2] (human) stood at 18.2 µM.

Regarding `CN[C@H]1CC[C@@H](c2ccc(Cl)c(Cl)c2)c2ccc(C(=O)OC)cc21` [Sertraline A-ring Methyl Ester, (5S,8S)-methyl 5-(3,4-dichlorophenyl)-8-(methylamino)-5,6,7,8-tetrahydronaphthalene-2-carboxylate], the “Synergy Score” value in series [1] is recorded as 0.51. Moreover, the “TI (CC50/IC50)” value in series [1] was 1.248. Further, the results for the CC50 in series [3] (CC50), in series [3] (CC50 (uM)) and in series [3] (CC50 (uM) [SG]) were 8.01 µM, 13.7 µM and 13.7 µM, respectively. The Emax came to 78% in series [4] (setting [7]), 99% in series [4] (setting [8]) and 78% in series [4] (setting [6]). The IC50 is 6.42 µM in series [4] (Huh-7, 48 h); 9.13 µM in series [4] (Huh-7, 72 h); 9.13 µM in series [4] (setting [5]).

Turning to `CNC1CCC(c2ccccc2OC)c2ccccc21` (stereo not drawn) [Sertraline B-Ring Ortho-Methoxy], in series [1], the “Max Effect” value came to 24% and the “Synergy Score” value is 0.81. Besides, in series [2], the CC50 was over 22.3 µM.

Turning to `CNC1CCC(c2ccc(C(F)(F)F)cc2)c2ccccc21` (stereo not drawn) [Sertraline B-Ring para-Trifluoromethane, N-methyl-4-(4-(trifluoromethyl)phenyl)-1,2,3,4-tetrahydronaphthalen-1-amine], the “Synergy Score” value in series [1] turned out to be 1.93. In series [1], the “TI (CC50/IC50)” value is listed as 1.299. Further, the CC50 in series [3] (CC50) is 15.9 µM; in series [3] (CC50 (uM)), 14.2 µM; in series [3] (CC50 (uM) [SG]) it was 14.2 µM. Besides, the Emax in series [4] (setting [7]) is 0%; in series [4] (setting [8]) it was 99%; in series [4] (setting [6]), 0%. Also, the IC50 in series [4] (Huh-7, 48 h) stood at 12.2 µM; in series [4] (Huh-7, 72 h) it was 13.4 µM; in series [4] (setting [5]) it was 13.4 µM.

Regarding `CNC1CCC(c2cccs2)c2ccccc21` (stereo not drawn) [Sertraline B-ring 2-Thiophene], in series [1], the “Max Effect@CC30 (inhibition)” value is reported as 42%. The 50% inhibitory concentration (IC50) in series [1] (read-out: IC50 (uM) [SG]) is 52.3 µM. In addition, the CC50 in series [2] was determined as 88.5 µM.

`CNC1CCC(c2ccccc2OC)c2ccccc21` (stereo not drawn) [Sertraline B-ring Ortho Methoxy, 4-(2-methoxyphenyl)-N-methyl-1,2,3,4-tetrahydronaphthalen-1-amine]: the CC50 is over 50 µM in series [2] (human), 58.6 µM in series [3] (CC50 (uM)) and 58.6 µM in series [3] (CC50 (uM) [SG]).

Take `CNC1CCC(c2cccc(OC)c2)c2ccccc21` (stereo not drawn) [Sertraline B-ring m-Methoxy]: the “Max Effect@CC30 (inhibition)” value in series [1] came to 27.70%. For the same molecule, in series [2], the CC50 was over 50 µM.

For the molecule `CNC1CCC(c2ccc(Oc3ccccc3)cc2)c2ccccc21` (stereo not drawn) [Sertraline B-ring para-Phenoxy, N-methyl-4-(4-phenoxyphenyl)-1,2,3,4-tetrahydronaphthalen-1-amine], in series [1], the “Synergy Score” value was 0.38. Further, the “TI (CC50/IC50)” value in series [1] came out at 1.987. The CC50 stood at 7.46 µM in series [3] (CC50), 6.8 µM in series [3] (CC50 (uM)) and 7.85 ± 1.48 µM in series [3] (CC50 (uM) [SG]). Also, the Emax in series [4] (setting [7]) came out at 65%; in series [4] (setting [8]), 99%; in series [4] (setting [6]) it was 81 ± 22.6%. Further, the IC50 in series [4] (Huh-7, 48 h) was found to be 3.75 µM; in series [4] (Huh-7, 72 h), 5.15 µM; in series [4] (setting [5]), 4.02 ± 1.6 µM.

In the case of `CN[C@H]1CC[C@@H](c2ccc(Cl)c(Cl)c2)c2ccccc21` [Sertraline HCL, Sertraline HCl, reference compound], the CC50 turned out to be 11.3 µM in series [2] (human) and 11.7 ± 2.03 µM in series [3] (CC50 (uM) [SG]). This molecule also gave a CC50 at 72 h in series [3] (CC50 (uM)) of 11.8 ± 2.09 µM. In addition, the Emax in series [4] (setting [7]) was 62 ± 11.2%; in series [4] (setting [6]), 62.6 ± 21.5%.

On to `CN[C@H]1CC[C@@H](c2ccc(Cl)c(Cl)c2)c2ccc(S(=O)(=O)N(C)C)cc21` [Sertraline N,N-dimethylsulfonamide, (5S,8S)-5-(3,4-dichlorophenyl)-N,N-dimethyl-8-(methylamino)-5,6,7,8-tetrahydronaphthalene-2-sulfonamide], for which the “Synergy Score” value in series [1] stood at 0.53. In series [1], the “TI (CC50/IC50)” value was 1.076. In addition, the CC50 in series [3] (CC50) was 7.85 µM; in series [3] (CC50 (uM)), 8.87 µM; in series [3] (CC50 (uM) [SG]), 8.87 µM. The Emax in series [4] (setting [7]) came out at 38%; in series [4] (setting [8]), 91%; in series [4] (setting [6]), 38%. In addition, the IC50 turned out to be 7.3 µM in series [4] (Huh-7, 48 h); 6.69 µM in series [4] (Huh-7, 72 h); 6.69 µM in series [4] (setting [5]).

`CN[C@H]1CC[C@@H](c2ccc(Cl)c(Cl)c2)c2ccc(C#N)cc21` [Sertraline Nitrile, (5S,8S)-5-(3,4-dichlorophenyl)-8-(methylamino)-5,6,7,8-tetrahydronaphthalene-2-carbonitrile]: the “Synergy Score” value in series [1] was determined as 0.52. For the same molecule, in series [1], the “TI (CC50/IC50)” value was over 1.796. Besides, the CC50 in series [3] (CC50) is over 13.4 µM; in series [3] (CC50 (uM)), 14.8 µM; in series [3] (CC50 (uM) [SG]) it was 14.8 µM. The values for the Emax in series [4] (setting [7]), in series [4] (setting [8]) and in series [4] (setting [6]) were 87%, 89% and 87%, respectively. Besides, the IC50 in series [4] (Huh-7, 48 h) is 7.46 µM; in series [4] (Huh-7, 72 h) it was 4.81 µM; in series [4] (setting [5]), 4.81 µM.

For `CN[C@H]1CC[C@@H](c2ccc(Cl)c(Cl)c2)c2ccc(S(N)(=O)=O)cc21` [Sertraline Sulfonamide NH2, (5S,8S)-5-(3,4-dichlorophenyl)-8-(methylamino)-5,6,7,8-tetrahydronaphthalene-2-sulfonamide], in series [1], the “Synergy Score” value is given as 0.49. Besides, the “TI (CC50/IC50)” value in series [1] is over 2.226. In addition, the CC50 was over 13.4 µM in series [3] (CC50), 9.99 ± 4.4 µM in series [3] (CC50 (uM)) and 9.99 ± 4.4 µM in series [3] (CC50 (uM) [SG]). In addition, the Emax in series [4] (setting [7]) was 63.5 ± 6.4%; in series [4] (setting [8]), 91%; in series [4] (setting [6]), 63.5 ± 6.4%. In addition, the concentration for half-maximal inhibition (IC50) in series [4] (Huh-7, 48 h) worked out at 6.02 µM; in series [4] (Huh-7, 72 h), 3.65 ± 2.3 µM; in series [4] (setting [5]) it was 3.65 ± 2.3 µM.

With `CN[C@H]1CC[C@@H](c2ccc(Cl)c(Cl)c2)c2ccc(S(=O)(=O)NC)cc21` [Sertraline Sulfonamide, (5S,8S)-5-(3,4-dichlorophenyl)-N-methyl-8-(methylamino)-5,6,7,8-tetrahydronaphthalene-2-sulfonamide], the “Synergy Score” value in series [1] is given as 0.43. In addition, the “TI (CC50/IC50)” value in series [1] stood at 1.605. Moreover, the CC50 in series [3] (CC50) worked out at 11.6 µM; in series [3] (CC50 (uM)), 13.04 ± 0.1 µM; in series [3] (CC50 (uM) [SG]), 13.04 ± 0.1 µM. In addition, the Emax in series [4] (setting [7]) was found to be 40.5 ± 5%; in series [4] (setting [8]), 94%; in series [4] (setting [6]) it was 40.5 ± 5%. For the same molecule, the IC50 stood at 7.26 µM in series [4] (Huh-7, 48 h); 6.87 ± 0.2 µM in series [4] (Huh-7, 72 h); 6.87 ± 0.2 µM in series [4] (setting [5]).

The record behind these values is US20100009970A1, “COMPOSITIONS AND METHODS FOR TREATMENT OF VIRAL DISEASES” (Combinatorx (Singapore) Pte. Ltd., priority 2008, published 2010).
